Results reported in patent US20130287721A1, “METHOD FOR COUNTERACTING AMMONIA MALODOR” (Firmenich SA, priority 2010, published 2013).

System: ammonia lateralization threshold
Assay: Panel evaluation of the lateralization threshold (LT) of ammonia alone and in combination with a PRM
Type: in vivo, panellists
Set-up: LT of ammonia Panellist 1 Cond II / LT of ammonia Panellist 2 Cond II / LT of ammonia Panellist 3 Cond II: unit not given here
Details: for Ammonia LT Panellist 1 Cond II / Ammonia LT Panellist 2 Cond II / Ammonia LT Panellist 3 Cond II / Ammonia LT Panellist 1 % Δ / Ammonia LT Panellist 2 % Δ / Ammonia LT Panellist 3 % Δ: Table 3; for Ammonia LT Panellist 1 Cond II / Ammonia LT Panellist 2 Cond II / Ammonia LT Panellist 3 Cond II: ammonia stimulus combined with PRM stimulus (concentration of Table 2 in propylene glycol); for Ammonia LT Panellist 1 % Δ / Ammonia LT Panellist 2 % Δ / Ammonia LT Panellist 3 % Δ / LT of ammonia Panellist 1 %Δ / LT of ammonia Panellist 2 %Δ / LT of ammonia Panellist 3 %Δ: change of ammonia LT, Cond II (with PRM) vs Cond I (ammonia alone); for LT of ammonia Panellist 1 Cond II / LT of ammonia Panellist 2 Cond II / LT of ammonia Panellist 3 Cond II / LT of ammonia Panellist 1 %Δ / LT of ammonia Panellist 2 %Δ / LT of ammonia Panellist 3 %Δ: Table 4; for LT of ammonia Panellist 1 Cond II / LT of ammonia Panellist 2 Cond II / LT of ammonia Panellist 3 Cond II: ammonia stimulus combined with PRM stimulus
Method: An ammonia stimulus test range was prepared. To ensure a stable level of ammonia in each stimulus, the ammonia headspace was stabilized by combining appropriate concentrations of NH4Cl, NaOH and H2O instead of simply adding ammonia directly to a solvent. Different concentrations of ammonia were used to create a stimulus test range by utilizing the appropriate amount of each compound (see Table 1).
A stimulus was also prepared for each PRM which was intended to be combined with ammonia stimuli. As the PRMs differed in their potency and to ensure that each PRM stimulus had approximately the same potency, an abbreviated dose response curve was constructed for each PRM by having four panellists evaluate the intensity of five concentration levels of the PRM dissolved in propylene glycol in duplicate. Assessments were made relative to the reference of 170 ppm allyl heptanoate in propylene glycol, which intensity was set to 0. Based upon the average scores, a rough intensity match was made for each PRM utilizing one of the following criteria. If one of the tested concentration levels averaged at or near zero, this concentration level was selected. If the rating created any sort of reasonable curve, the equation of the curve was determined and solved for 0 to arrive at the PRM assessment level. If multiple concentration levels were equally distant form the match level, then the standard deviation across individuals was considered, as were the individual responses. In general, the PRM level was selected to be on average close to 0 with low variability, with two panellists saying the level was a bit too high and the other two panellists saying the level was a bit too low. The PRMs for which a stimulus was prepared are listed in Table 2 below, together with the concentration of the PRM in the stimulus.
Volunteers were screened for their ability to lateralize ammonia stimuli. For the screening, the experimenter measured the participant's lateralization threshold for ammonia using a two-alternative forced choice modified staircase procedure employing a four-in, two-down, one-up rule with a five reversal criterion, as described below, On each trial volunteers were presented with a pair of glass bottles with clean, custom-made nose pieces. One bottle contained ammonia at a particular level selected from Table 1 and the other bottle contained water only. Each bottle was applied to one nostril using the nose piece. The volunteers were asked to identify which bottle in each pair contained ammonia.
If the ammonia stimulus was correctly identified in four consecutive trials, the concentration was decreased by one level of Table 1 on the next trial. If an incorrect answer was provided, the concentration was increased by one level of Table 1. Location (left or right nostril) of the stimulus was randomized over presentations. Testing continued until one of the following occurred: • 1) Five reversals (correct decision followed by an incorrect decision or vice versa) were achieved; • 2) The volunteer gave a correct response twice in a row at the lowest level of Table 1; or • 3) The volunteer gave an incorrect response at the highest level of Table 1.
In the first circumstance, threshold values were then calculated by averaging the last four reversals. In the second circumstance, the LT was the lowest level. In the third circumstance, the LT could not be calculated. Volunteers were considered qualified to participate in the panel evaluation if their LT could be calculated (Circumstance 1).
The LT of ammonia, both alone and in combination with diverse PRM, was determined. A repeated-measures design was used, such that the LT with and without the addition of a PRM were both measured at the same time in one person by utilizing interwoven stimuli presentations. The LT for each PRM was measured by two to three panellists, the third panellists being included if the results of the first to panellists disagreed. […]

SMILES | Ammonia LT Panellist 1 Cond II | Ammonia LT Panellist 2 Cond II | Ammonia LT Panellist 3 Cond II | Ammonia LT Panellist 1 % Δ | Ammonia LT Panellist 2 % Δ | Ammonia LT Panellist 3 % Δ | LT of ammonia Panellist 1 Cond II | LT of ammonia Panellist 2 Cond II | LT of ammonia Panellist 3 Cond II | LT of ammonia Panellist 1 %Δ | LT of ammonia Panellist 2 %Δ | LT of ammonia Panellist 3 %Δ
CCCc1ccc(OC)cc1 [Dihydroestragole] | 7.3 ppm | 71.9 ppm | 22.9 ppm | −62% | 28% | 214% | – | – | – | – | – | –
CCOC(=O)C1=C(C)C=CCC1(C)C [Ethyl 2,6,6-trimethyl-1,3-cyclohexadiene-1-carboxylate] | – | – | – | – | – | – | 0.6 | 0.6 | 0.2 | 786% | 215% | 200%
CCOC(=O)C(C)CC (stereo not drawn) [Ethyl 2-methylbutanoate] | – | – | – | – | – | – | 19.6 | 11.1 | 11.1 | 214% | 213% | 77%
CCOC(=O)C(=O)C(C)CC (stereo not drawn) [Ethyl 3-methyl-2-oxopentanoate] | – | – | – | – | – | – | 0.6 | 0.6 | 0.6 | 417% | 786% | 210%
CCC=CCC=C/C=C/C(=O)OCC [Ethyl (2E)-2,4,7-decatrienoate] | – | – | – | – | – | – | 1.1 | 2.0 | 2.0 | 223% | 469% | 2743%
O=C1CCCCCCCCCCCCCCO1 [Exaltolide ®, Pentadecanolide] | 6.1 ppm | 71.9 ppm | – | 213% | 214% | – | – | – | – | – | – | –
CC(C)CC1CC(C)(O)CCO1 (stereo not drawn) [Florol ®, Tetrahydro-2-isobutyl-4-methyl-4(2H)-pyranol] | 56.3 ppm | 7.3 ppm | 22.9 ppm | 146% | −62% | 0% | – | – | – | – | – | –
CCOC(=O)C1CCC(C(=O)OCC)CC1 (stereo not drawn) [Fructalate ®, Diethyl 1,4-cyclohexane dicarboxylate] | 56.3 ppm | 188.3 ppm | – | 194% | 214% | – | – | – | – | – | – | –
CC(C)=CCC/C(C)=C/CO [Geraniol] | 6.1 ppm | 60.0 ppm | – | −68% | −73% | – | – | – | – | – | – | –
CCCCCC1C(=O)CCC1CC(=O)OC (stereo not drawn) [Hedione ®, Methyl dihydrojasmonate] | 7.5 ppm | 22.9 ppm | 6.1 ppm | 23% | −90% | −68% | – | – | – | – | – | –
O=Cc1ccc2c(c1)OCO2 [Heliotropine ®, 1,3-Benzodioxole-5-carbaldehyde] | 7.3 ppm | 22.9 ppm | 2.3 ppm | 274% | −87% | −96% | – | – | – | – | – | –
CCC(=O)OCC(C)(C)O[C@@H](C)[C@@H]1CCCC(C)(C)C1 [Helvetolide ®, (+)-(1S,1′R)-2-[1-(3′,3′-dimethyl-1′-cyclohexyl)ethoxy]-2-methylpropyl propanoate] | – | – | – | – | – | – | 11.1 | 2.0 | 2.0 | 454% | 426% | 895%
CCCCCCOC(=O)c1ccccc1O [Hexyl salicylate] | 7.3 ppm | 188.3 ppm | 7.3 ppm | −68% | 162% | −62% | – | – | – | – | – | –
CC(CC=O)CCCC(C)(C)O (stereo not drawn) [Hydroxycitronellal] | 71.9 ppm | 56.1 ppm | 22.9 ppm | 20% | −22% | 20% | – | – | – | – | – | –
CCCC(=O)OCC(C)C [Isopropylmethyl butyrate] | 188.4 ppm | 188.3 ppm | – | 81809% | 235% | – | – | – | – | – | – | –
CC(C=O)Cc1ccc(C(C)(C)C)cc1 (stereo not drawn) [Lilial ®, 3-(4-Tert-butylphenyl)-2-methylpropanal] | 22.9 ppm | 7.3 ppm | 19.1 ppm | 300% | −96% | 0% | – | – | – | – | – | –
Cc1ccc2c(c1)CC(C)(CO)C2 (stereo not drawn) [Lilyflore ®, 2,5-Dimethyl-2-indanmethanol] | 60.0 ppm | 176.5 ppm | 7.3 ppm | 162% | −6% | −84% | – | – | – | – | – | –
C=CC(C)(O)CCC=C(C)C (stereo not drawn) [Linalool] | 188.3 ppm | 22.9 ppm | 56.3 ppm | 2480% | 0% | 214% | – | – | – | – | – | –
CC(C)[C@H]1CC[C@@H](CO)CC1 [Mayol ®, cis-7-P-menthanol] | – | – | – | – | – | – | 0.6 | 3.5 | 3.5 | 800% | 212% | 212%
COC(=O)c1ccccc1 [Methyl benzoate] | 7.3 ppm | 60 ppm | – | 213% | 162% | – | – | – | – | – | – | –
CCCCC[C@@H]1C(=O)CC[C@@H]1CC(=O)OC [Paradisone ®, (+)-Methyl (1R)-cis-3-oxo-2-pentyl-1-cyclopentaneacetate] | 22.9 ppm | 225.5 ppm | 6.1 ppm | 0% | 214% | −73% | – | – | – | – | – | –
C=C1CCCC(C)(C)C1C(=O)OC (stereo not drawn) [Romascone ®, Methyl 2,2-dimethyl-6-methylene-1-cyclohexanecarboxylate] | – | – | – | – | – | – | 11.1 | 2.0 | 6.3 | 1685% | 77% | 1686%
CC1=C(C=O)C(C)(C)CC=C1 [Safranal] | 22.9 ppm | 2.2E−03 ppm | – | 20% | 3088% | – | – | – | – | – | – | –
CCCOC(=O)[C@H](C)OC(C)(C)CC [Sclareolate ®, Propyl (S)-2-(1,1-dimethylpropoxy)propanoate] | – | – | – | – | – | – | 1.1 | 1.1 | 0.6 | 465% | 223% | −2%
